The subject of experiment [1] is Rattus norvegicus. The experiment is described as follows: Effective dose causing reduction of serotonin effect at 5 min administered iv in Bezold-Jarisch reflex test. The experiment is classed as functional.
Experiment [2] has as its target Serotonin 3 (5-HT3) receptor. The experiment is described as follows: Binding affinity towards [3H]quipazine labeled 5-hydroxytryptamine 3 receptor sites in HG108-15. The format is protein-complex assay, Cavia porcellus.
In experiment [3] the test system is Rattus norvegicus. Kind of experiment: Inhibition of restraint stress induced defecation by oral administration (inhibition at 1 mg/kg).
In experiment [4] the test system is Rattus norvegicus. The experiment is described as follows: Inhibition of restraint stress induced defecation by oral administration (inhibition percent at 1 mg/kg).
The test system of experiment [5] is Rattus norvegicus. Kind of experiment: Inhibitory dose causing inhibition of restraint stress induced defecation by oral administration. The experiment is classed as functional. To be noted: read-out: ID50 (the source's name).
The species named for experiment [6] is Rattus norvegicus. The experiment is described as follows: Inhibition of wrap-restraint stress-induced colonic propulsion measured by the time required to expel a teflon ball inserted 3 cm into the rat colon. The format is functional. To be noted: read-out: ID50 (the source's name).
The species named for experiment [7] is Rattus norvegicus. The experiment is described as follows: animal or person. The experiment is classed as functional. To be noted: sc, dose mg/kg 1-10, route subcutaneous, read-out: ID50 (the source's name).
Description: Inhibitory dose causing inhibition of increase in 5-HT induced defecation by sc administration 1 to 10 mg/kg
For experiment [8], the species on record is Rattus norvegicus. Kind of experiment: animal or person. To be noted: sc, route subcutaneous, read-out: ID50 (the source's name). The experiment is classed as functional.
Description: Inhibitory dose causing inhibition of increase in thyrotropin-releasing hormone (TRH) induced defecation by sc administration at 1 mg/kg
The test system of experiment [9] is Rattus norvegicus. Kind of experiment: Inhibitory dose causing inhibition of increase in castor oil induced diarrhea by oral administration at 1 ml/rat. The format is functional. To be noted: read-out: ID50 (the source's name).
The test system of experiment [10] is Rattus norvegicus. Kind of experiment: Inhibitory dose causing inhibition of restraint stress induced defecation by oral administration ((inhibition percent at 1 mg/kg). The format is functional. To be noted: read-out: ID50 (the source's name).
For experiment [11], the system named is Rattus norvegicus. The experiment is described as follows: Inhibitory dose causing inhibition of increase in 5-HT induced defecation by sc administration at 1 to 10 mg/kg. To be noted: dose mg/kg 1-10, route subcutaneous, read-out: ID50 (the source's name). The format is functional.

SMILES strings stand for the structures.

`CC(C)Cc1cc(C(=O)OC2CC3CCC(C2)N3C)c2ccccc2n1` (configuration not stated) yielded an ED50 in [1] of 5.6 µg/kg. Further, the affinity in experiment [2] corresponds to a Ki of 0.69 nM. The compound further displayed an Inhibition % at 1 mg/kg in experiment [3] of 28%.
Taken in the same sequence, the figures for `CCCCn1c(=O)c(C(=O)NC2CC3CCC(C2)N3C)c(O)c2cccnc21` (configuration not stated) were 290 µg/kg, 6.4 nM and 35%.
Turning to `CCCOc1cc(C(=O)NC2CC3CCC(C2)N3C)c2ccccc2n1` (configuration not stated), the ED50 in experiment [1] is 1540 µg/kg. This compound also registered an Inhibition % at 1 mg/kg in [4] of 29%. Also, in experiment [2], the affinity, expressed as Ki, was 42 nM.
For `CN1C2CCC1CC(NC(=O)c1cnc3ccccc3c1O)C2` (configuration not stated), the ED50 in experiment [1] turned out to be 0.1 µg/kg; in experiment [5] it was 1400 µg/kg; in experiment [6] it was 1800 µg/kg; in experiment [7], 690 µg/kg; in experiment [8], 53 µg/kg; in [9] it was 790 µg/kg. The inhibition constant Ki in [2] stood at 1.5 nM.
As for `CCCCOc1cc(C(=O)OC2CC3CCC(C2)N3C)c2ccccc2n1` (configuration not stated), the ED50 in [1] worked out at 200 µg/kg. The compound also displayed an Inhibition % at 1 mg/kg in experiment [4] of 64%. Further, in experiment [2], the Ki was found to be 0.39 nM.
For `CC(C)n1c(=O)cc(C(=O)OC2CC3CCC(C2)N3C)c2ccccc21` (configuration not stated), the ED50 in experiment [1] was 81 µg/kg; in [5], 40 µg/kg. In [2], this compound yielded a Ki of 0.32 nM.
With `CCCCCCn1c(=O)cc(C(=O)OC2CC3CCC(C2)N3C)c2ccccc21` (configuration not stated), the ED50 is 86 µg/kg in [1] and 66 µg/kg in [5]. In [2], affinity was put at a Ki of 1.1 nM.
As to `CCCCn1c(=O)cc(C(=O)OC2CC3CCC(C2)N3C)c2ccccc21` (configuration not stated), the ED50 in experiment [1] was 41 µg/kg; in [5], 140 µg/kg. In experiment [2], this compound displayed a Ki of 0.68 nM.
The corresponding values for `COc1cc(C(=O)OC2CC3CCC(C2)N3C)c2ccccc2n1` (configuration not stated) are 420 µg/kg, 45000 µg/kg and 0.58 nM.
In [1], `CN1C2CCC1CC(NC(=O)c1cc(=O)n(-c3ccccc3)c3ccccc13)C2` (configuration not stated) yielded an ED50 of 190 µg/kg. Also, in experiment [4], the Inhibition % at 1 mg/kg came out at 14%. The compound further gave a Ki in [2] of 63 nM.
In turn, `Cc1nc2ccccc2c(O)c1C(=O)NC1CC2CCC(C1)N2C` (configuration not stated) showed an ED50 in experiment [1] of 15 µg/kg. Besides, the affinity in experiment [2] corresponds to a Ki of 7.2 nM. This compound also yielded an Inhibition % at 1 mg/kg in experiment [3] of 41%.
Consider `CCCn1c(=O)cc(C(=O)NC2CC3CCC(C2)N3C)c2ccccc21` (configuration not stated), for which the ED50 in experiment [1] is 350 µg/kg. The Inhibition % at 1 mg/kg in [4] was 12%. Further, affinity in experiment [2] was put at a Ki of 67 nM.
Turning to `CCCCCn1c(=O)cc(C(=O)OC2CC3CCC(C2)N3C)c2ccccc21` (configuration not stated), the ED50 in [1] was determined as 59 µg/kg; in experiment [5] it was 73 µg/kg. For the same compound, affinity in experiment [2] was put at a Ki of 0.96 nM.
For `CC(C)Cn1c(=O)cc(C(=O)OC2CC3CCC(C2)N3C)c2ccccc21` (configuration not stated), the ED50 worked out at 33 µg/kg in experiment [1]; 13 µg/kg in [5]; 10 µg/kg in [6]; 18 µg/kg in experiment [7]; 21 µg/kg in experiment [8]; 1400 µg/kg in experiment [9]. The Ki in experiment [2] amounted to 0.47 nM.
Take `CC(C)COc1cc(C(=O)OC2CC3CCC(C2)N3C)c2ccccc2n1` (configuration not stated): the ED50 in experiment [1] stood at 240 µg/kg; in experiment [10], 36000 µg/kg. For the same compound, the Ki in experiment [2] is 0.44 nM.
The compound `CCCCOc1cc(C(=O)NC2CC3CCC(C2)N3C)c2ccccc2n1` (configuration not stated) showed an ED50 in [1] of 540 µg/kg. Also, the Inhibition % at 1 mg/kg in [4] is 43%. In experiment [2], the Ki worked out at 19 nM.
The corresponding values for `CN1C2CCC1CC(OC(=O)c1cc(=O)n(Cc3ccccc3)c3ccccc13)C2` (configuration not stated) are 150 µg/kg, 22% and 1.3 nM.
Compound `CCCCn1c(=O)c(C(=O)NC2CC3CCC(C2)N3C)c(O)c2ccccc21` (configuration not stated) yielded an ED50 in [1] of 290 µg/kg. The compound also yielded a Ki in [2] of 0.48 nM. In addition, the Inhibition % at 1 mg/kg in experiment [3] turned out to be 61%.
As for `CCCCCOc1cc(C(=O)OC2CC3CCC(C2)N3C)c2ccccc2n1` (configuration not stated), the ED50 in experiment [1] turned out to be 1130 µg/kg; in experiment [5], 30000 µg/kg. Also, the Ki in experiment [2] came to 0.86 nM.
With `CCn1c(=O)cc(C(=O)OC2CC3CCC(C2)N3C)c2ccccc21` (configuration not stated), the values for the ED50 in experiment [1] and in experiment [5] were 22 µg/kg and 52 µg/kg, respectively. The compound further returned a Ki in experiment [2] of 1.1 nM.
`CCCCn1c(=O)cc(C(=O)NC2CC3CCC(C2)N3C)c2ccccc21` (configuration not stated) showed an ED50 in [1] of 370 µg/kg. The compound also had an Inhibition % at 1 mg/kg in experiment [4] of 47%. Moreover, the Ki in [2] was determined as 60 nM.
Consider `CN1C2CCC1CC(NC(=O)c1c(O)c3ccccc3n(-c3ccccc3)c1=O)C2` (configuration not stated), for which, in [1], the ED50 turned out to be 73 µg/kg. Also, the Ki in [2] was found to be 1.4 nM. The Inhibition % at 1 mg/kg in experiment [3] came to 48%.
Consider `CCOc1cc(C(=O)OC2CC3CCC(C2)N3C)c2ccccc2n1` (configuration not stated), for which, in experiment [1], the ED50 is 70 µg/kg. This compound showed an Inhibition % at 1 mg/kg in experiment [4] of 36%. The same compound had an inhibition constant Ki in experiment [2] of 0.88 nM.
Regarding `CCCn1c(=O)cc(C(=O)OC2CC3CCC(C2)N3C)c2ccccc21` (configuration not stated), the ED50 in experiment [1] was found to be 330 µg/kg; in [5], 170 µg/kg. In addition, the affinity in [2], expressed as Ki, was 0.45 nM.
Consider `Cn1cc(C(=O)C2CCc3nc[nH]c3C2)c2ccccc21` (configuration not stated), for which the ED50 in [1] was found to be 0.089 µg/kg; in experiment [5], 5.2 µg/kg; in [6] it was 69 µg/kg; in experiment [7], 13 µg/kg; in [8], 5.1 µg/kg; in experiment [9], 1100 µg/kg. The same compound gave a Ki in experiment [2] of 0.071 nM.
Regarding `CN1C2CCC1CC(OC(=O)c1cc(-c3ccccc3)nc3ccccc13)C2` (configuration not stated), the ED50 in experiment [1] was determined as 340 µg/kg. The compound further displayed a Ki in experiment [2] of 71 nM.
As to `CC(C)CCn1c(=O)cc(C(=O)OC2CC3CCC(C2)N3C)c2ccccc21` (configuration not stated), the ED50 in [1] was 59 µg/kg; in experiment [5] it was 41 µg/kg. In experiment [2], the Ki came to 1.5 nM.
As to `CC(C)Oc1cc(C(=O)NC2CC3CCC(C2)N3C)c2ccccc2n1` (configuration not stated), the ED50 in [1] was 1860 µg/kg; in [5] it was 39000 µg/kg. In experiment [2], this compound had an inhibitory constant (Ki) of 53 nM.
For the compound `CN1C2CCC1CC(OC(=O)c1cc(=O)n(-c3ccccc3)c3ccccc13)C2` (configuration not stated), in [1], the ED50 worked out at 44 µg/kg. Also, the Inhibition % at 1 mg/kg in [4] came to 59%. Moreover, the affinity in experiment [2], expressed as Ki, was 0.51 nM.
`CN1C2CCC1CC(OC(=O)c1cc(=O)n(C)c3ccccc13)C2` (configuration not stated) registered an ED50 in experiment [1] of 180 µg/kg. In experiment [4], this compound came in with an Inhibition % at 1 mg/kg of 47%. Further, the affinity in [2] corresponds to a Ki of 2.6 nM.
`CN1C2CCC1CC(OC(=O)c1cnc3ccccc3c1O)C2` (configuration not stated) came in with an ED50 in experiment [1] of 1.7 µg/kg. Besides, the inhibition constant Ki in [2] came to 6.1 nM. The Inhibition % at 1 mg/kg in [3] is 13%.
`CCCCCCOc1cc(C(=O)OC2CC3CCC(C2)N3C)c2ccccc2n1` (configuration not stated): the ED50 in experiment [1] amounted to 7680 µg/kg. In experiment [4], this compound gave an Inhibition % at 1 mg/kg of 23%. In experiment [2], this compound returned an inhibitory constant (Ki) of 3.2 nM.
`Cc1nccn1CC1CCc2c(c3ccccc3n2C)C1=O` (configuration not stated) [ONDANSETRON]: the ED50 in [5] was 27 µg/kg; in experiment [6] it was 1600 µg/kg; in [8], 310 µg/kg; in [11], 530 µg/kg; in experiment [9], 1400 µg/kg.

As usually defined, the Ki is a dissociation constant, usually derived from enzyme kinetics or from competition with a known ligand. A lower Ki goes with tighter binding.

Source of the values: ChEMBL document CHEMBL1126872, “5-HT3 receptor antagonists. 3. Quinoline derivatives which may be effective in the therapy of irritable bowel syndrome” (J Med Chem, 1993).
